Data from patent US20120283216A1, “FUNGICIDAL 2-(BICYCLIC ARYLOXY)CARBOXAMIDES” (priority 2009, published 2012).

Legend:
Assay type in all cases: in vivo
Septoria tritici = test: Test B: wheat leaf blotch, preventive spray on wheat seedlings, visual disease rating; conditions: preventive spray at 40 ppm, rated after 48 h + 19 days; for pest or weed control at 40 ppm: Zymoseptoria tritici, 504 h, read-out: Test B disease control rating (100 = 100% disease control, 0 = no disease control relative to the controls)
Description: (§1) General protocol for preparing test suspensions for Tests A-C: the test compounds were first dissolved in acetone in an amount equal to 11% of the final volume and then suspended at the desired concentration (in ppm) in acetone and purified water (50/50 mix by volume) containing 250 ppm of the surfactant Trem® 014 (polyhydric alcohol esters). The resulting test suspensions were then used in Tests A-C. Spraying a 40 ppm test suspension to the point of run-off on the test plants was the equivalent of a rate of 800 g/ha. The test suspension was sprayed to the point of run-off on wheat seedlings. The following day the seedlings were inoculated with a spore suspension of Septoria tritici (the causal agent of wheat leaf blotch) and incubated in a saturated atmosphere at 20° C. for 48 h, and then moved to a growth chamber at 20° C. for 19 days, after which time disease ratings were visually made. Results for Tests A-C are given in Table A. In the Table, a rating of 100 indicates 100% disease control and a rating of 0 indicates no disease control (relative to the controls). A dash (-) indicates no test results. All results are from applications of 40 ppm.

[1] = system: Blumeria graminis f. sp. tritici; test: Test A: wheat powdery mildew, preventive spray on wheat seedlings, visual disease rating; conditions: preventive spray at 40 ppm, rated 8 days after inoculation; for pest or weed control at 40 ppm: Blumeria graminis, 192 h, read-out: Test A disease control rating (100 = 100% disease control, 0 = no disease control relative to the controls)
Description: as §1, with “spore dust” for “spore suspension”, “of Blumeria graminis f. sp. tritici,” for “of Septoria tritici”, “wheat powdery mildew)” for “wheat leaf blotch)”, “in” for “in a saturated atmosphere at 20° C. for 48 h, and then moved to”, “for 8” for “for 19”

Botrytis cinerea = test: Test C: tomato botrytis, preventive spray on tomato seedlings, visual disease rating; conditions: preventive spray at 40 ppm, rated after 48 h + 3 days; for pest or weed control at 40 ppm: Botrytis cinerea, 120 h, read-out: Test C disease control rating (100 = 100% disease control, 0 = no disease control relative to the controls)
Description: General protocol for preparing test suspensions for Tests A-C: the test compounds were first dissolved in acetone in an amount equal to 11% of the final volume and then suspended at the desired concentration (in ppm) in acetone and purified water (50/50 mix by volume) containing 250 ppm of the surfactant Trem® 014 (polyhydric alcohol esters). The resulting test suspensions were then used in Tests A-C. Spraying a 40 ppm test suspension to the point of run-off on the test plants was the equivalent of a rate of 800 g/ha.
The test suspension was sprayed to the point of run-off on tomato seedlings. The following day the seedlings were inoculated with a spore suspension of Botrytis cinerea (the causal agent of tomato botrytis) and incubated in saturated atmosphere at 20° C. for 48 h, and then moved to a growth chamber at 27° C. for 3 additional days, after which time disease ratings were visually made.
Results for Tests A-C are given in Table A. In the Table, a rating of 100 indicates 100% disease control and a rating of 0 indicates no disease control (relative to the controls). A dash (-) indicates no test results. All results are from applications of 40 ppm.

| Structure (SMILES) | pest or weed control at 40 ppm (Septoria tritici) | pest or weed control at 40 ppm [1] | pest or weed control at 40 ppm (Botrytis cinerea) | Test B disease control rating (100 = 100% disease control, 0 = no disease control relative to the controls) (Septoria tritici) | Test A disease control rating (100 = 100% disease control, 0 = no disease control relative to the controls) [1] | Test C disease control rating (100 = 100% disease control, 0 = no disease control relative to the controls) (Botrytis cinerea) |
| --- | --- | --- | --- | --- | --- | --- |
| CCC(Oc1cnc2ccc(Cl)cc2c1)C(=O)NC(C)(C)C (stereo not shown) [Compound 40] | 100% | 92% | 99% |  |  |  |
| CCC(Oc1ccc2ccc(I)cc2c1)C(=O)NC(C)(C)COC (stereo not shown) [Compound 92] |  |  |  | 100% | 100% | 100% |
| CCOc1ccc2ccc(OC(OCC)C(=O)NC(C)(C)C#N)cc2c1 (stereo not shown) [Compound 123] |  |  |  | 100% | 82% | 98% |
| CCOc1ccc2ccc(OC(OC)C(=O)NC(C)(C)COC)cc2c1 (stereo not shown) [Compound 70] |  |  |  | 100% | 100% | 98% |
| COCC(C)(C)NC(=O)C(OC)Oc1ccc2ccc(I)cc2c1 (stereo not shown) [Compound 103, 2-[(7-iodo-2-naphthalenylyl)oxy]-2-methoxy-N-(2-methoxy-1,1-dimethylethyl)acetamide] |  |  |  | 100% | 100% | 100% |
| CCC(Oc1ccc2ccc(OC)cc2c1)C(=O)N(C)C(C)(C)C (stereo not shown) [Compound 166] | 46% | 0% | 99% |  |  |  |
| CCC(Oc1ccc2ccc(Br)cc2c1)C(=O)NC(C)(C)C=O (stereo not shown) [Compound 17] |  |  |  | 100% | 89% | 99% |
| C#CC(CC)(CC)NC(=O)C(CC)Oc1ccc2ccc(OC)cc2c1 (stereo not shown) [Compound 86] |  |  |  | 19% | 0% | 19% |
| C#CC(C)(C)NC(=O)C(CC)Oc1cnc2ccc(OC)cc2c1 (stereo not shown) [Compound 147] |  |  |  | 99% | 0% | 99% |
| C#CC(C)(C)NC(=O)C(CC)Oc1ccc2ccc(Br)cc2c1 (stereo not shown) [Compound 31] |  |  |  |  | 100% | 100% |
| CCOC(Oc1ccc2ccc(OC)cc2c1)C(=O)NC(C)(C)CC (stereo not shown) [Compound 117] |  |  |  | 93% | 0% | 98% |
| COCOCC(C)(C)NC(=O)C(OC)Oc1ccc2ccc(Br)cc2c1 (stereo not shown) [Compound 99] |  |  |  |  | 96% | 100% |
| C#Cc1ccc2ncc(OC(CC)C(=O)NC(C)(C)COC)cc2c1 (stereo not shown) [Compound 148] |  |  |  |  | 100% | 100% |
| COC(Oc1ccc2ccc(Br)cc2c1)C(=O)NC(C)(C)CO (stereo not shown) [Compound 98] |  |  |  |  | 64% | 99% |
| COC(Oc1ccc2ccc(Br)cc2c1)C(=O)NC(C)(C)C (stereo not shown) [Compound 100] |  | 100% | 99% |  |  |  |
